Measurements reported in US12285407B2, “Bis-indolylmethane derivatives and uses thereof” (The University of The West Indies, priority 2018, dated 2025).

Legend:
[1] = test system: Klebsiella pneumoniae ATCC 49472; assay: Broth microdilution MIC of SP-BIMs; type: cell-based; conditions: ATCC49472, SP-BIM alone, read-out: MIC Klebisella pneumoniae ATCC 49472
[2] = test system: Bacillus cereus ATCC 14579; assay: Broth microdilution MIC of SP-BIMs; type: cell-based; conditions: ATCC14579, SP-BIM alone, read-out: MIC Bacillus cereus ATCC 14579
in vitro = conditions: human
[3] = test system: Salmonella typhimurium ATCC 14028; assay: Broth microdilution MIC of SP-BIMs; type: cell-based; conditions: Salmonella enterica, read-out: MIC Salmonella tvpkimurium ATCC 14028
In short: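 S. typhimurium at ~10^6 CFU mL^−1 in cation-adjusted Mueller Hinton broth was exposed to twofold compound dilutions from 250 to 0.02 μg mL^−1 at 35° C. for 18 hours. Resazurin was then added, with 1 hour of shaking. MIC was the lowest concentration showing no blue-to-pink colour change.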

[4] = test system: Enterococcus faecium ATCC 19434; assay: Broth microdilution MIC of SP-BIMs; type: cell-based; conditions: ATCC19434, SP-BIM alone, read-out: MIC Enterococcus faecium ATCC 19434
[5] = test system: Streptococcus pyogenes ATCC 19615; assay: Broth microdilution MIC of SP-BIMs; type: cell-based; conditions: ATCC19615, SP-BIM alone, read-out: MIC Streptococcus pyogenes ATCC 19615
[6] = test system: sarA, agrA, RNA III, mecA, blaZ and fnbA genes; assay: Real time gene expression analysis in MRSA cells; conditions: MRSA cells exposed to SP-BIM 13 only, or SP-BIM 13 in combination with ampicillin; 5 and 10 μg mL^−1
[7] = test system: reference pathogen strains; assay: Checkerboard synergy study, summary over pathogens; type: cell-based; conditions: checkerboard with SP-BIM 13

Oc1cc(C(c2c[nH]c3ccccc23)c2c[nH]c3ccccc23)cc(O)c1O [SP-BIM 13, 5-(di(1H-indol-3-yl)methyl)benzene-1,2,3-triol]
MIC [1]: > 250 µg/mL
MIC [2]: 125 µg/mL
CC50 (in vitro): 750 µM
MIC [3]: 250 µg/mL
MIC [4]: 125 µg/mL
MIC [5]: 125 µg/mL
expression of both the downstream and regulator genes [6]: significantly reduced
reduction of most antibiotic MICs ([7]; Gram-positive and Gram-negative pathogens): reduced by tenfold or more
interaction effect in combinations with trimethoprim [7]: antagonistic
